These results are taken from patent publication US12209071B2, “Triazine derivatives for treating diseases relating to neurotrophins” (AlzeCure Pharma AB, priority 2018, dated 2025).

The target in experiment [1] is T1, FGFR1 (Homo sapiens, UniProt P11362).
T1 construct: expressed in transfected cells; host or cells: U2OS (cryopreserved)
The experiment in a line: Enzyme Fragment Complementation cell-based assay, FGFR1. Particulars: cryopreserved U2OS-cells expressing FGFR1; ligand 10 ng/mL; 3 hours incubation. An excerpt:
(§1) A high throughput cell-based screen has been used to identify positive modulators of TrkA, TrkB and TrkC. The screen involves the use of cell-based assay overexpressing TrkA, TrkB or TrkC. The purpose of the assay is to identify compounds that modulate neurotrophin signalling (Forsell et al 2012). The assay can be used in inhibitor mode using a high concentration of ligand, in modulator mode using an intermediate concentration and in agonist mode using a low concentration of ligand.
(§2) The assay uses Enzyme Fragment Complementation (EFC) technique, which is a proximity-based assay. Briefly, cells used in this assay over-express two fusion proteins, i.e. the receptor, which can be either one of TrkA, TrkB, TrkC, IGF1R or FGFR1, fused to a small peptide of beta-galactosidase and an adaptor protein, i.e. SHC1 (or any other Trk-adaptor protein) fused to the major part of beta-galactosidase. […] The proximity between the small activating peptide on the receptor and the major part of beta-galactosidase on the adaptor protein leads to an active beta-galactosidase enzyme. The activation of the receptor is quantified by measuring the amount of active beta-galactosidase by its conversion of a non-luminescent substrate into a luminescent product.
(§3) U2OS-cells, over-expressing TrkA or TrkB or TrkC, are plated in 96- or 384-well plates and incubated overnight. Alternatively, cryopreserved HEK293-cells expressing IGFR1 or cryopreserved U2OS-cells expressing FGFR1 were plated in 96- or 384-well plates. On the following day, test compound was pre-mixed with ligand (NGF, BDNF, NT-3, IGF-1 or basic fibroblast growth factor (bFGF(FGF-2))) and the ligand-compound mixture is then added to the cells to yield a final ligand concentration of 10 ng/mL. After 3 hours of incubation at room temperature, the incubation is stopped by the addition of a beta-galactosidase substrate mixture containing detergents. The substrate mixture is incubated for 60 minutes at ambient temperature. The luminescence is thereafter read by the use of a plate reader.

Experiment [2] concerns the target T2, IGF1R (Homo sapiens, UniProt P08069).
T2 construct: expressed in transfected cells; host or cells: HEK293 (cryopreserved)
The experiment in a line: Enzyme Fragment Complementation cell-based assay, IGF1R. Particulars: cryopreserved HEK293-cells expressing IGFR1; ligand 10 ng/mL; 3 hours incubation.
Description: as §1, §2, §3

For experiment [3], the system named is mice treated with scopolamine. The experiment in a line: Passive avoidance task. Type of experiment: in vivo. As to conditions: C57/Bl6 mice; s.c. once per day for 4 days prior to PA training; scopolamine 0.3 mg/kg s.c. 30 min prior to training; FIG. 1. As for the experimental part: Passive avoidance (PA) is an aversive learning task based on classical (Pavlovian) fear conditioning that allows for analysis of both facilitation and impairment of memory function by adjusting the unconditioned stimulus, i.e. the electrical foot shock. Commonly a cognitive-impairing agent is administered to the animals to mimic the neurochemical disturbances present in various cognitive disorders e.g. cholinergic (scopolamine) and glutamatergic (MK-801) deficits.
Prior to testing, the animals are brought to the experimental room where they are allowed to habituate for 60 min. The test is conducted using a modified shuttle box with two communicating compartments of equal size with a small sliding door built into the separating wall and a stainless-steel bar floor. One of the compartments is not illuminated and thus black whereas the other compartment (the light one) is illuminated by an electric bulb, installed on the top of a plexiglass cover. The PA training is conducted in a single session. […] Latency to cross over into the dark compartment (training latency) is recorded. […] The latency to cross over into the dark compartment with all four feet is measured (retention latency) as well as time in bright compartment and a number of other relevant parameters (e.g. number of visits in the dark compartment). […]

Experiment [4] has as its target T3, TrkA (Homo sapiens, UniProt P04629).
T3 construct: expressed in transfected cells; host or cells: U2OS
The experiment in a line: Enzyme Fragment Complementation cell-based assay, TrkA. Particulars: U2OS-cells over-expressing TrkA; ligand 10 ng/mL; 3 hours incubation. Summed up:
(§4)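 U2OS cells overexpressing TrkA, TrkB, TrkC or FGFR1, with receptor and SHC1 fused to complementary beta-galactosidase fragments. Compound pre-mixed with cognate ligand (NGF, BDNF, NT-3 or bFGF; 10 ng/mL final), 3 h at room temperature. Beta-galactosidase substrate with detergent added for 60 min; luminescence read.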

Experiment [5] deals with T4, TrkB (Homo sapiens, UniProt Q16620).
T4 construct: expressed in transfected cells; host or cells: U2OS
Put plainly: Enzyme Fragment Complementation cell-based assay, TrkB. Particulars: U2OS-cells over-expressing TrkB; ligand 10 ng/mL; 3 hours incubation. Summed up:
as §4

T3 sequence (P04629 33-796): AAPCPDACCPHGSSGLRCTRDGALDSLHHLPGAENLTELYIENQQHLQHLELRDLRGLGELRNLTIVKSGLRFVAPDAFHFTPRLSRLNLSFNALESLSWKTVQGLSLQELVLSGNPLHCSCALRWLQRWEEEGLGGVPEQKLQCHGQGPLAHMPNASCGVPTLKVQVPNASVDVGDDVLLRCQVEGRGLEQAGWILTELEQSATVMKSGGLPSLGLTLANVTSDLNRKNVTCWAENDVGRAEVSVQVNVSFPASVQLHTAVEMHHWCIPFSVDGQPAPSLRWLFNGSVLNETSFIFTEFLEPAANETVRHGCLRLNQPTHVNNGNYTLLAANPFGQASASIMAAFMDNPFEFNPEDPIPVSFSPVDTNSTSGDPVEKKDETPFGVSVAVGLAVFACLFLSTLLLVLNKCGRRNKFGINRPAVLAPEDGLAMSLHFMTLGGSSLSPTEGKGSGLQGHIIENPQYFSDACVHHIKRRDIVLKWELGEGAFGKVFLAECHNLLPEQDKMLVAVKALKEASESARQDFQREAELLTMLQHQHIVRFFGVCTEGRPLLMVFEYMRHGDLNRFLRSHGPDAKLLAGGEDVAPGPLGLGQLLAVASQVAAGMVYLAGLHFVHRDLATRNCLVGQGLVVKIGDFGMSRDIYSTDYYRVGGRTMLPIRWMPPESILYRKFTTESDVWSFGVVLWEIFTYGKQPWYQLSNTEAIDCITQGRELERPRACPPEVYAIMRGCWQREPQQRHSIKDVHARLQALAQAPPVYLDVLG
T1 sequence (P11362 22-822): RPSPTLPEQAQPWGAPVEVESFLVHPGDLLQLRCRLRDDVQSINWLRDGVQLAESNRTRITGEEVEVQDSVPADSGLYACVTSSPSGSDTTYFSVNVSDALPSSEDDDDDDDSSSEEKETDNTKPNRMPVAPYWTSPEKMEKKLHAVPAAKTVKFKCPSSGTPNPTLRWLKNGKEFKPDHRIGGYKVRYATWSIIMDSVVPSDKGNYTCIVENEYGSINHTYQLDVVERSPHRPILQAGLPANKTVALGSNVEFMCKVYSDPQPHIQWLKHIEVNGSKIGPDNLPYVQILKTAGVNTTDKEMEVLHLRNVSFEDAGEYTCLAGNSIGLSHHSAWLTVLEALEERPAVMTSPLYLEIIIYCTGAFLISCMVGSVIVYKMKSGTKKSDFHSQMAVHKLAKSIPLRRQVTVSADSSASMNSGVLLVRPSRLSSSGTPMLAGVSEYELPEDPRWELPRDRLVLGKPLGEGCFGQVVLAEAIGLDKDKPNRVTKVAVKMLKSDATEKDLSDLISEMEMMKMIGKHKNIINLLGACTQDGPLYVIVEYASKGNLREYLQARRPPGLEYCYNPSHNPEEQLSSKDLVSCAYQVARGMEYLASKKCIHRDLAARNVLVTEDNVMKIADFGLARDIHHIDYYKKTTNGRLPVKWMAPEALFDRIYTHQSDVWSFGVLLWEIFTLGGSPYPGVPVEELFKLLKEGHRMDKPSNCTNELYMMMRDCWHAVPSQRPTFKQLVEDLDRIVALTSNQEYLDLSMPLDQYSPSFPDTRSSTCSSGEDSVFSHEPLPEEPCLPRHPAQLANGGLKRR
T4 sequence (Q16620 32-822): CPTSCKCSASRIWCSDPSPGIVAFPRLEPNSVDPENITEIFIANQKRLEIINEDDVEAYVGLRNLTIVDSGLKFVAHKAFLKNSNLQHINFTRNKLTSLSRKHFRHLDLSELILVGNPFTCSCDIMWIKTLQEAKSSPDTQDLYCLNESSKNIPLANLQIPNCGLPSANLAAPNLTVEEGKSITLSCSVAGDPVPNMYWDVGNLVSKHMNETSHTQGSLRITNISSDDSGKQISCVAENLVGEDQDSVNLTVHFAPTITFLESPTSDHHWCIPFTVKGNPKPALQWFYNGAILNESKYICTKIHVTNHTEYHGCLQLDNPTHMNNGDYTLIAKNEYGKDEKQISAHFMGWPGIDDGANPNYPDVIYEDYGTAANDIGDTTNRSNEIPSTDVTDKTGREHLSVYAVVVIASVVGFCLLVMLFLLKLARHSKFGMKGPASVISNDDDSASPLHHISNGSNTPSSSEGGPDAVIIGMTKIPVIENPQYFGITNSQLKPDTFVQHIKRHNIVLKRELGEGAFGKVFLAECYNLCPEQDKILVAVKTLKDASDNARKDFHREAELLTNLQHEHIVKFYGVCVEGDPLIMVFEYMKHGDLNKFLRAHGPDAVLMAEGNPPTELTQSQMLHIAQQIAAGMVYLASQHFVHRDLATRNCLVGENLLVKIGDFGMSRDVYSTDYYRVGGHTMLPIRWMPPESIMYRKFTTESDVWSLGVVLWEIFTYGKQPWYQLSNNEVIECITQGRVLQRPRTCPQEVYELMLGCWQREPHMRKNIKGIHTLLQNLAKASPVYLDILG
T2 sequence (P08069 31-736 limits assumed): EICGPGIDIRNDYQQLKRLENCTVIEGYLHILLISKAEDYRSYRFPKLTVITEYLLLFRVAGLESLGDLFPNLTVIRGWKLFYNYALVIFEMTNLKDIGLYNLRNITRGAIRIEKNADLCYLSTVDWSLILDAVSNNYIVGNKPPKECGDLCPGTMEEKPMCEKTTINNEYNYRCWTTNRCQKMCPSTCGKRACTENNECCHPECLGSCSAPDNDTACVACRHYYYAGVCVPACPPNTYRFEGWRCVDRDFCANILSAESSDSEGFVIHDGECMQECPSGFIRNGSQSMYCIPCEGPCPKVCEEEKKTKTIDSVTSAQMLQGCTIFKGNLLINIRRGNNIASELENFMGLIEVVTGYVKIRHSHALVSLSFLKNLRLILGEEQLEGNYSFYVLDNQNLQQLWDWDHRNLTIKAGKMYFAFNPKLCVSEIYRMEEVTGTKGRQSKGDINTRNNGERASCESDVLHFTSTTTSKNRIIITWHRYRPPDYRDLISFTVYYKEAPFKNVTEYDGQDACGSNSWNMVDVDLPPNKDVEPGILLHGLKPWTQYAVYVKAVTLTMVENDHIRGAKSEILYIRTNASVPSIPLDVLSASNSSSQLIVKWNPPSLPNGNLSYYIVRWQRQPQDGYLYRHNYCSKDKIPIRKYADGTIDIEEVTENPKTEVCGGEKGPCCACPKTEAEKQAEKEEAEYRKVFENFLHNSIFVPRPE
T2 sequence (P08069 741-1367 limits assumed): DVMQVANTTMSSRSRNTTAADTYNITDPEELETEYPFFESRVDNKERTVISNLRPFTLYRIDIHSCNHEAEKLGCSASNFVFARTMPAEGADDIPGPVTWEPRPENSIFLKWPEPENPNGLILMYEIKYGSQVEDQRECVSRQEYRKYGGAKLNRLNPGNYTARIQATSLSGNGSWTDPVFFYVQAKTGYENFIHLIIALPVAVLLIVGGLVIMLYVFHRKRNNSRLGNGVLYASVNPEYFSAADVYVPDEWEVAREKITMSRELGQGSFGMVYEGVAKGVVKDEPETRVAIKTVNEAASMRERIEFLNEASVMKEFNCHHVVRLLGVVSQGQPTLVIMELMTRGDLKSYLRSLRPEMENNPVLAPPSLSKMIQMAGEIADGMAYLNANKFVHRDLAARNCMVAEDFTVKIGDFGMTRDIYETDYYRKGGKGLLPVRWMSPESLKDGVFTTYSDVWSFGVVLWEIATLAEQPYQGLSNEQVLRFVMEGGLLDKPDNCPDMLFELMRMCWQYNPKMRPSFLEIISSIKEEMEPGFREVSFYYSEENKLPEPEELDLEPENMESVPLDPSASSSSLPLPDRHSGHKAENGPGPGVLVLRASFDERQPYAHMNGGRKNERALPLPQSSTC

In the case of `Cc1cc(-n2c(=O)[nH]c(=O)n(-c3ccccc3)c2=O)ccc1Oc1ccccc1` [Example 5, 1-(3-methyl-4-phenoxyphenyl)-3-phenyl-1,3,5-triazinane-2,4,6-trione], the EC50 (in general, the concentration needed to bring the measured effect to its halfway point) in experiment [1] is 290 nM; in experiment [2], 250 nM; in experiment [4], 340 nM; in experiment [5], 390 nM. Besides, the “retention latency within the bright area (cognitive function)” value in experiment [3] is “increased retention latency”.
